Laboratory results as given in PMC11637875, “Discovery of novel PARP1/NRP1 dual-targeting inhibitors with strong antitumor potency” (Frontiers in Pharmacology, 2024).

Legend:
HIPK3 = HIPK3 (Homo sapiens, UniProt Q9H422); assay: Selectivity profile (123 kinase panel); format: biochemical
FER = FER (Homo sapiens, UniProt P16591); assay: Selectivity profile (123 kinase panel); format: biochemical
PARP3 = PARP3 (Homo sapiens, UniProt Q9Y6F1); assay: Selectivity profile (other isoforms of PARP and NRP family); format: biochemical
PARP3, sequence (Q9Y6F1 whole entry, canonical isoform): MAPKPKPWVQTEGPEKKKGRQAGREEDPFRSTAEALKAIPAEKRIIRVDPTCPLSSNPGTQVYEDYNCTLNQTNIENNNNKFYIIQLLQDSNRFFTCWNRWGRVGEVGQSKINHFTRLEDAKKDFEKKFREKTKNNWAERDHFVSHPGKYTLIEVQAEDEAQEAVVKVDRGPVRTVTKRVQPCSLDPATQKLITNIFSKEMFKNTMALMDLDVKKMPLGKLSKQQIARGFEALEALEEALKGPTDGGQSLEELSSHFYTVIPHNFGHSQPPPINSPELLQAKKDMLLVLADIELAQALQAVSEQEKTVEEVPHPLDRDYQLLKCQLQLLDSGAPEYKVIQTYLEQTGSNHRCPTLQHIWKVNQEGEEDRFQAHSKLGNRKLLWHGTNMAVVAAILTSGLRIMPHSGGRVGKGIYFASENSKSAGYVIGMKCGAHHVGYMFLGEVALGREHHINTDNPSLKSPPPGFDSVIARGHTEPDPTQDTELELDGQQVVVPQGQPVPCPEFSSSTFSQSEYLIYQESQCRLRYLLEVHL

EPHA6 = EPHA6 (Homo sapiens, UniProt Q9UF33); assay: Selectivity profile (123 kinase panel); format: biochemical
EPHA6, sequence (Q9UF33 23-1036, species assumed): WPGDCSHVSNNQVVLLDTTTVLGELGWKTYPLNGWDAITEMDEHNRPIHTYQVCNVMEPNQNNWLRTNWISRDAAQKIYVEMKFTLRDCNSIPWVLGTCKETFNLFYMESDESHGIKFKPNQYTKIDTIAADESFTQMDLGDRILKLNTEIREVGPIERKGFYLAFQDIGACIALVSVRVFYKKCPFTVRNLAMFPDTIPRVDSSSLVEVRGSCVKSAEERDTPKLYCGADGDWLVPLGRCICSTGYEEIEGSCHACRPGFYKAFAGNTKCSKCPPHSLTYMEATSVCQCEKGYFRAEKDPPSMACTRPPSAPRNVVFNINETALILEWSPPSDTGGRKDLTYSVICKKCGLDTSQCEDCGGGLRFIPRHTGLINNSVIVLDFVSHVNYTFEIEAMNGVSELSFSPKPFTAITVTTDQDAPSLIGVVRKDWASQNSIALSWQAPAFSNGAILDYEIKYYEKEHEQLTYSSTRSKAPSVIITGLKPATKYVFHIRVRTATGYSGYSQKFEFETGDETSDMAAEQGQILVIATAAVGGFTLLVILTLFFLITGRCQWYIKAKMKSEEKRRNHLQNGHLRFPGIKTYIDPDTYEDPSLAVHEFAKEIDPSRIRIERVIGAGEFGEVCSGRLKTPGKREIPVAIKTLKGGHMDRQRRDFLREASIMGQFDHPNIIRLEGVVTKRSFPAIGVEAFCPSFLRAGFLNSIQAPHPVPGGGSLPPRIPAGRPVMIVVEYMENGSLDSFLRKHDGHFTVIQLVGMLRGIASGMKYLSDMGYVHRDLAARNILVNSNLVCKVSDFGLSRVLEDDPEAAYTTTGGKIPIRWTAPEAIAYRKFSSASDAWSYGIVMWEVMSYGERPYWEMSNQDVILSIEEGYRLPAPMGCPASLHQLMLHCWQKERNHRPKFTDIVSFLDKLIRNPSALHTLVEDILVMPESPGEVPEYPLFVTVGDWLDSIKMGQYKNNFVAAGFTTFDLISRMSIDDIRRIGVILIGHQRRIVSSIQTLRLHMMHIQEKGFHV

MET = MET (Homo sapiens, UniProt P08581); assay: Selectivity profile (123 kinase panel); format: biochemical
MLK3 = MLK3 (Homo sapiens, UniProt Q16584); assay: Selectivity profile (123 kinase panel); format: biochemical
AXL = AXL (Homo sapiens, UniProt P30530); assay: Selectivity profile (123 kinase panel); format: biochemical
DCAMKL2 = DCAMKL2 (Homo sapiens, UniProt Q8N568); assay: Selectivity profile (123 kinase panel); format: biochemical
ALK4 = ALK4 (Homo sapiens, UniProt P36896); assay: Selectivity profile (123 kinase panel); format: biochemical
NEK1 = NEK1 (Homo sapiens, UniProt Q96PY6); assay: Selectivity profile (123 kinase panel); format: biochemical
FGFR1 = FGFR1 (Homo sapiens, UniProt P11362); assay: Selectivity profile (123 kinase panel); format: biochemical
BLK = BLK (Homo sapiens, UniProt P51451); assay: Selectivity profile (123 kinase panel); format: biochemical
BLK, sequence (P51451 whole entry): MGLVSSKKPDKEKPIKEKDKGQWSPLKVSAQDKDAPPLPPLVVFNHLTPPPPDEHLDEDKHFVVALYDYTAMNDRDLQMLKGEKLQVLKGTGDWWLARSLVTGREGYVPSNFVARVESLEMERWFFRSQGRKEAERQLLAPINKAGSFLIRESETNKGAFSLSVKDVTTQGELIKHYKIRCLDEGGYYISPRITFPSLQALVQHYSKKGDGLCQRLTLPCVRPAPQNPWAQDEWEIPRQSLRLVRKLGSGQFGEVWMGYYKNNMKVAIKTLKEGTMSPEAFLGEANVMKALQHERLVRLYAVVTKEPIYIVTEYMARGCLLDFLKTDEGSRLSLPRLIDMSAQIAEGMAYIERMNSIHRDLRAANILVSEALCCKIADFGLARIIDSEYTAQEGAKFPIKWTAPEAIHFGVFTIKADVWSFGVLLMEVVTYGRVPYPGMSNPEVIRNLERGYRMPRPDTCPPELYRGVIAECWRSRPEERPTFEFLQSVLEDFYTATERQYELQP

[1] = test system: MDA-MB-231 xenograft tumor; assay: In vivo antitumor assay; set-up: species or system BALB/c nude mice; conditions: for body weight (g) in mice, mean / tumor volume (mm^3), mean: 5 mg/kg intraperitoneally every 3 days, n = 6
Procedure: Twenty-four female BALB/c nude mice (body weight 16–20 g) at 4–6 weeks old were purchased from Changzhou Cavens Experimental Animal Limited Company (Changzhou, China). Mice were adaptively housed for 1 week in a specific pathogen-free (SPF) environment with a temperature of 25°C ± 2°C, a 12-hour light/dark cycle, and free access to food and water. MDA-MB-231 breast cancer cells (200 μL, 1×10^7 cells) were suspended in PBS to formulate cell suspension, and 0.1 mL of cells were injected into the axilla of the left forelimb of mice by subcutaneous injection. […] Equal concentrations of drug-free PBS buffer were used for the vehicle group. Each group was administered every 3 days and the body weight and tumor size of the mice were recorded. Mice were executed when the tumor volume approached 2000 mm^3. Tumor volumes of all mice were measured using vernier calipers. The mice were placed belly up and the longest diameter of the tumor was measured with the inner bayonet of a vernier caliper, and the shortest transverse diameter perpendicular to the diameter was measured with the inner bayonet of a vernier caliper and recorded. Tumor volume was estimated according to the following formula: (c × c × d)/2 (c, the smallest diameter; d, the largest diameter). All animal experiments were performed and approved by the Ethics Committee of China Pharmaceutical University.

AMPKα2/β1/γ1 = AMPKα2/β1/γ1 (Homo sapiens, UniProt P54619+P54646+Q9Y478); assay: Selectivity profile (123 kinase panel); format: biochemical
FLT1 = FLT1 (Homo sapiens, UniProt P17948); assay: Selectivity profile (123 kinase panel); format: biochemical
KHS = KHS (Homo sapiens, UniProt Q9Y4K4); assay: Selectivity profile (123 kinase panel); format: biochemical
EPHA2 = EPHA2 (Homo sapiens, UniProt P29317); assay: Selectivity profile (123 kinase panel); format: biochemical
DYRK4 = DYRK4 (Homo sapiens, UniProt Q9NR20); assay: Selectivity profile (123 kinase panel); format: biochemical
DYRK4, sequence (Q9NR20 whole entry): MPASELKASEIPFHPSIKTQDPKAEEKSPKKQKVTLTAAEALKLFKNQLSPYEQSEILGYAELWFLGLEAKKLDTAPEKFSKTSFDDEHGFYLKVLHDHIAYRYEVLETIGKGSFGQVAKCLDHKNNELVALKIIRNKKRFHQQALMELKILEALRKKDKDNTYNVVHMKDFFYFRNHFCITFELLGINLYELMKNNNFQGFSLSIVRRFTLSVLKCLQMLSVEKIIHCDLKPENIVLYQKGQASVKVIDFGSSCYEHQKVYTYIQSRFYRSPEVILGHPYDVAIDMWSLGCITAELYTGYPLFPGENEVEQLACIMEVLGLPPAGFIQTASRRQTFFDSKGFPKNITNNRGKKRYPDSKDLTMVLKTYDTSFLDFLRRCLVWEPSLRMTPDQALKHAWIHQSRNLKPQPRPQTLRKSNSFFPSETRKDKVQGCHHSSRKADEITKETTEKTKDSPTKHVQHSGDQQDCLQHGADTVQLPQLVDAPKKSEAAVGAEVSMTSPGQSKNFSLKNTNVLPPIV

AurB = AurB (Homo sapiens, UniProt Q96GD4); assay: Selectivity profile (123 kinase panel); format: biochemical
BRSK2 = BRSK2 (Homo sapiens, UniProt Q8IWQ3); assay: Selectivity profile (123 kinase panel); format: biochemical
MARK2 = MARK2 (Homo sapiens, UniProt Q7KZI7); assay: Selectivity profile (123 kinase panel); format: biochemical
MRCKα = MRCKα (Homo sapiens, UniProt Q5VT25); assay: Selectivity profile (123 kinase panel); format: biochemical
FLT4 = FLT4 (Homo sapiens, UniProt P35916); assay: Selectivity profile (123 kinase panel); format: biochemical
MLK1 = MLK1 (Homo sapiens, UniProt P80192); assay: Selectivity profile (123 kinase panel); format: biochemical
MLK1, sequence (P80192 whole entry): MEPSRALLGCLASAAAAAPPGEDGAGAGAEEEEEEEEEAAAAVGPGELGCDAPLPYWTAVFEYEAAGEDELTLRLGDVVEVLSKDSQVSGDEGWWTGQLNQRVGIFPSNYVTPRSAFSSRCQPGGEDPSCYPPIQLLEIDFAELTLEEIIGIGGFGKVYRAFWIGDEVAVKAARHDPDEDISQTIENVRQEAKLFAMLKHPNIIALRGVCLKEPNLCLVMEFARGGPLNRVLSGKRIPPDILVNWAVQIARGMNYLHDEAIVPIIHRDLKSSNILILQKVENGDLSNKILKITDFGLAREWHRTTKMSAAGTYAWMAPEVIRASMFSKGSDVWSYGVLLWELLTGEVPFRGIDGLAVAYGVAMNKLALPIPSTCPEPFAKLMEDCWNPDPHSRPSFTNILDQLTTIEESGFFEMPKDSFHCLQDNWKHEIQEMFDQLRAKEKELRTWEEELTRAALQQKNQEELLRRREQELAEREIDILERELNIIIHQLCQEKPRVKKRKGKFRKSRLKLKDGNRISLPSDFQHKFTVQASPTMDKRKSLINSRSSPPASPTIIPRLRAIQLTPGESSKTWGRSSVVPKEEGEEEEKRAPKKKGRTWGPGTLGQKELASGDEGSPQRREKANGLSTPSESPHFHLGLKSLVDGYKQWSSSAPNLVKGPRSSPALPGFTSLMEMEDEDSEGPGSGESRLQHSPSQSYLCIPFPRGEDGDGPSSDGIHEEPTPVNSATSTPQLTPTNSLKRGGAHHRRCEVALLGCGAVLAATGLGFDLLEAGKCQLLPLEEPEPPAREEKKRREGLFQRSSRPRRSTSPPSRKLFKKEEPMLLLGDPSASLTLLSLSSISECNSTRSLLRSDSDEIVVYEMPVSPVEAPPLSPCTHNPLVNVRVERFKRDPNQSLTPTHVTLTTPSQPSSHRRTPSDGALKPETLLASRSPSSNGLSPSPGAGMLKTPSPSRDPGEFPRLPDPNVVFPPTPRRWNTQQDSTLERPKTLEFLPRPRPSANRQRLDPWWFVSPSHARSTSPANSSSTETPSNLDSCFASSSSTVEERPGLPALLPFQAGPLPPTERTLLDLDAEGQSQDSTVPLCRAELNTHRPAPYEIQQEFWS

DDR1 = DDR1 (Homo sapiens, UniProt Q08345); assay: Selectivity profile (123 kinase panel); format: biochemical
FGFR2 = FGFR2 (Homo sapiens, UniProt P21802); assay: Selectivity profile (123 kinase panel); format: biochemical
MARK1 = MARK1 (Homo sapiens, UniProt Q9P0L2); assay: Selectivity profile (123 kinase panel); format: biochemical
FAK = FAK (Homo sapiens, UniProt Q05397); assay: Selectivity profile (123 kinase panel); format: biochemical
EPHB3 = EPHB3 (Homo sapiens, UniProt P54753); assay: Selectivity profile (123 kinase panel); format: biochemical
BTK = BTK (Homo sapiens, UniProt Q06187); assay: Selectivity profile (123 kinase panel); format: biochemical
MARK3 = MARK3 (Homo sapiens, UniProt P27448); assay: Selectivity profile (123 kinase panel); format: biochemical
EGFR = EGFR (Homo sapiens, UniProt P00533); assay: Selectivity profile (123 kinase panel); format: biochemical
EGFR, sequence (P00533 25-1210): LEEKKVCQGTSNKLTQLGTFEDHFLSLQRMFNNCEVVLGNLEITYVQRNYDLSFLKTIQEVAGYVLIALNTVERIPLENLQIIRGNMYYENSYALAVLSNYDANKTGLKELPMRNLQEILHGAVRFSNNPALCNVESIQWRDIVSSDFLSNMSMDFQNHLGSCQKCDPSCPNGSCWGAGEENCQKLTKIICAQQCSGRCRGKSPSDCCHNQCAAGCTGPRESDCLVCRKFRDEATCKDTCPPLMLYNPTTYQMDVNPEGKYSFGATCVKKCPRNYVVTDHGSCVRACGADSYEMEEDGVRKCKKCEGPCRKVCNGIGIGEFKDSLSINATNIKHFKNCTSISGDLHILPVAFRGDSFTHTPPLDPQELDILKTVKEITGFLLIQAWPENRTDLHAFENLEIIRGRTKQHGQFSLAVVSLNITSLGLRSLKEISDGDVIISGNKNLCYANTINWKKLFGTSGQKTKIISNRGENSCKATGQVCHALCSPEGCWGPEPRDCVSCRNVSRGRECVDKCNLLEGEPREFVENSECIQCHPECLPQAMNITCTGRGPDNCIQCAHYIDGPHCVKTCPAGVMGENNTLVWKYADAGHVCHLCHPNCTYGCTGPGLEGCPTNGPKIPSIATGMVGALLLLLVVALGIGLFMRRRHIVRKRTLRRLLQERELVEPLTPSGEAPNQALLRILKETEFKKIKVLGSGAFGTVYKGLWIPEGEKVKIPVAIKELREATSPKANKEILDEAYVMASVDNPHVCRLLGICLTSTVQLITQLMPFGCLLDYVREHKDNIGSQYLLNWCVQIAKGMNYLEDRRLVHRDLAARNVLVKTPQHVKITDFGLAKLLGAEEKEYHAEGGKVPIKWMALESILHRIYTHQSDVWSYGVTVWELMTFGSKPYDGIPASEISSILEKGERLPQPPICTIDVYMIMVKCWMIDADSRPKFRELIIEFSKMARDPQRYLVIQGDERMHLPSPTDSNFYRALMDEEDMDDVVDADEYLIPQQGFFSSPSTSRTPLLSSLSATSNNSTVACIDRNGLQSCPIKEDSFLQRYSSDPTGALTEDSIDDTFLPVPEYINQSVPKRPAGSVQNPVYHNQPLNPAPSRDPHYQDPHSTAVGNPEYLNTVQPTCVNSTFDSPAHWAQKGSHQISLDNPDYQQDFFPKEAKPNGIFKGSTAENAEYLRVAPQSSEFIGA

LOK = LOK (Homo sapiens, UniProt O94804); assay: Selectivity profile (123 kinase panel); format: biochemical
NEK2 = NEK2 (Homo sapiens, UniProt P51955); assay: Selectivity profile (123 kinase panel); format: biochemical
AurC = AurC (Homo sapiens, UniProt Q9UQB9); assay: Selectivity profile (123 kinase panel); format: biochemical

- IC50 (HIPK3): > 10 µM
- IC50 (FER): > 10 µM
- IC50 (PARP3): > 10 µM
- IC50 (EPHA6): > 10 µM
- IC50 (MET): > 10 µM
- IC50 (MLK3): > 10 µM
- IC50 (AXL): > 10 µM
- IC50 (DCAMKL2): > 10 µM
- IC50 (ALK4): > 10 µM
- IC50 (NEK1): > 10 µM
- IC50 (FGFR1): > 10 µM
- IC50 (BLK): > 10 µM
- IC50 (AMPKα2/β1/γ1): > 10 µM
- IC50 (FLT1): > 10 µM
- IC50 (KHS): > 10 µM
- IC50 (EPHA2): > 10 µM
- IC50 (DYRK4): > 10 µM
- IC50 (AurB): > 10 µM
- IC50 (BRSK2): > 10 µM
- IC50 (MARK2): > 10 µM
- IC50 (MRCKα): > 10 µM
- IC50 (FLT4): > 10 µM
- IC50 (MLK1): > 10 µM
- IC50 (DDR1): > 10 µM
- IC50 (FGFR2): > 10 µM
- IC50 (MARK1): > 10 µM
- IC50 (FAK): > 10 µM
- IC50 (EPHB3): > 10 µM
- IC50 (BTK): > 10 µM
- IC50 (MARK3): > 10 µM
- IC50 (EGFR): > 10 µM
- IC50 (LOK): > 10 µM
- IC50 (NEK2): > 10 µM
- IC50 (AurC): > 10 µM
SMILES: NC(N)=NCCC[C@H](NCN1CCN(C(=O)c2cc(Cc3n[nH]c(=O)c4ccccc34)ccc2F)CC1)C(=O)O [PPNR-4]
- inhibitory effect on tumor volume growth ([1]; 5 mg/kg, in comparison to the olaparib or EG00229-treated groups): more remarkable inhibitory effect on tumor volume growth
- body weight (g) in mice, mean ([1]; day 0): 18.41 g
- tumor volume (mm^3), mean ([1]; day 0): 99 mm^3
- body weight (g) in mice, mean ([1]; day 3): 18.62 g
- tumor volume (mm^3), mean ([1]; day 3): 155 mm^3
- body weight (g) in mice, mean ([1]; day 6): 18.85 g
- tumor volume (mm^3), mean ([1]; day 6): 196 mm^3
- body weight (g) in mice, mean ([1]; day 9): 19.07 g
- tumor volume (mm^3), mean ([1]; day 9): 253 mm^3
- body weight (g) in mice, mean ([1]; day 12): 19.33 g
- tumor volume (mm^3), mean ([1]; day 12): 226 mm^3
